Results: PubChem BioAssay AID248 (DTP/NCI, 2004)
Toxic doses and inconclusive results are not listed. Cut-off read from the data, not from the text of the source: active = T/C of 150% or more; inactive = T/C below 125%.

Tested on: L1210 leukemia ip in BDF1 mice, survival T/C
Experiment: NCI In Vivo Anticancer Drug Screen. Data for tumor model L1210 Leukemia (intraperitoneal) in B6D2F1 (BDF1) mice
Details: endpoint: mean survival time, higher = longer survival
How it was run: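 Each compound was tested against a transplantable tumor grown in mice. The endpoint was survival, with treated animals benchmarked against vehicle controls as a simple ratio.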

[1] = dose: 100.0 mg/kg/injection, schedule: Q01DX009 (ip), vehicle: saline
[2] = dose: 100.0 mg/kg/injection, schedule: Q04DX003 (ip), vehicle: saline
[3] = dose: 200.0 mg/kg/injection, schedule: Q01DX009 (ip), vehicle: saline
[4] = dose: 200.0 mg/kg/injection, schedule: Q04DX003 (ip), vehicle: saline
[5] = dose: 400.0 mg/kg/injection, schedule: Q01DX009 (ip), vehicle: saline
[6] = dose: 400.0 mg/kg/injection, schedule: Q04DX003 (ip), vehicle: saline
[7] = dose: 100.0 mg/kg/injection, schedule: Q01DX001 (ip), vehicle: saline
[8] = dose: 200.0 mg/kg/injection, schedule: Q01DX001 (ip), vehicle: saline
[9] = dose: 100.0 mg/kg/injection, schedule: Q01DX001 (ip), vehicle: Klucel (hydroxypropylcellulose) (HPC)
[10] = dose: 200.0 mg/kg/injection, schedule: Q01DX001 (ip), vehicle: Klucel (hydroxypropylcellulose) (HPC)
[11] = dose: 100.0 mg/kg/injection, schedule: Q01DX009 (ip), vehicle: Klucel (hydroxypropylcellulose) (HPC)
[12] = dose: 100.0 mg/kg/injection, schedule: Q04DX003 (ip), vehicle: Klucel (hydroxypropylcellulose) (HPC)
[13] = dose: 200.0 mg/kg/injection, schedule: Q01DX009 (ip), vehicle: Klucel (hydroxypropylcellulose) (HPC)
[14] = dose: 200.0 mg/kg/injection, schedule: Q04DX003 (ip), vehicle: Klucel (hydroxypropylcellulose) (HPC)
[15] = dose: 400.0 mg/kg/injection, schedule: Q01DX009 (ip), vehicle: Klucel (hydroxypropylcellulose) (HPC)
[16] = dose: 400.0 mg/kg/injection, schedule: Q04DX003 (ip), vehicle: Klucel (hydroxypropylcellulose) (HPC)
[17] = dose: 100.0 mg/kg/injection, schedule: Q04DX003 (ip), vehicle: saline with Tween-80
[18] = dose: 200.0 mg/kg/injection, schedule: Q04DX003 (ip), vehicle: saline with Tween-80
[19] = dose: 400.0 mg/kg/injection, schedule: Q04DX003 (ip), vehicle: saline with Tween-80
[20] = dose: 100.0 mg/kg/injection, schedule: Q01DX009 (ip), vehicle: saline with Tween-80
[21] = dose: 200.0 mg/kg/injection, schedule: Q01DX009 (ip), vehicle: saline with Tween-80

Measured: T/C

CC(C)C1NC(=O)NC1=O (configuration not stated)
inactive: [1] 98 % of control | [2] 103 % of control | [3] 105 % of control | [4] 101 % of control | [5] 103 % of control | [6] 97 % of control

Nc1nc(N)c2ncn(C3OC(CO)C(O)C3O)c2n1 (configuration not stated)
inactive: [7] 102 % of control | [8] 115 % of control

COc1ccc(N=Nc2ccccn2)cc1
inactive: dose: 50.0 mg/kg/injection, schedule: Q01DX001 (ip), vehicle: Klucel (hydroxypropylcellulose) (HPC) 103 % of control | [9] 105 % of control | [10] 103 % of control

Clc1cccc(/C=C2\c3cc(Cl)ccc3-c3c(Cl)cc(Cl)cc32)c1
inactive: [9] 96 % of control | [11] 106 % of control | [12] 97 % of control | [10] 93 % of control | [13] 98 % of control | [14] 101 % of control | dose: 400.0 mg/kg/injection, schedule: Q01DX001 (ip), vehicle: Klucel (hydroxypropylcellulose) (HPC) 93 % of control | [15] 98 % of control | [16] 101 % of control

CN(C)C(=S)N1C(=O)C2C3CCC(O3)C2C1=O (configuration not stated)
inactive: dose: 3.13 mg/kg/injection, schedule: Q01DX009 (ip), vehicle: saline with Tween-80 102 % of control | dose: 6.25 mg/kg/injection, schedule: Q01DX009 (ip), vehicle: saline with Tween-80 98 % of control | dose: 6.25 mg/kg/injection, schedule: Q04DX002 (ip), vehicle: saline with Tween-80 106 % of control | dose: 12.5 mg/kg/injection, schedule: Q04DX002 (ip), vehicle: saline with Tween-80 87 % of control

C#CC(=O)OCC
inactive: dose: 12.5 mg/kg/injection, schedule: Q04DX003 (ip), vehicle: saline with Tween-80 103 % of control | dose: 25.0 mg/kg/injection, schedule: Q01DX001 (ip), vehicle: saline with Tween-80 105 % of control | dose: 25.0 mg/kg/injection, schedule: Q04DX003 (ip), vehicle: saline with Tween-80 106 % of control | dose: 50.0 mg/kg/injection, schedule: Q01DX001 (ip), vehicle: saline with Tween-80 108 % of control | dose: 50.0 mg/kg/injection, schedule: Q04DX003 (ip), vehicle: saline with Tween-80 119 % of control

COc1nc(N)c(C#N)cc1C#N
inactive: dose: 12.5 mg/kg/injection, schedule: Q01DX009 (ip), vehicle: Klucel (hydroxypropylcellulose) (HPC) 96 % of control | dose: 25.0 mg/kg/injection, schedule: Q01DX009 (ip), vehicle: Klucel (hydroxypropylcellulose) (HPC) 102 % of control | dose: 50.0 mg/kg/injection, schedule: Q01DX009 (ip), vehicle: Klucel (hydroxypropylcellulose) (HPC) 93 % of control | [12] 92 % of control

C=CCc1cccc(OC)c1OCCN(CC)CC
inactive: dose: 6.25 mg/kg/injection, schedule: Q01DX009 (ip), vehicle: saline 111 % of control | dose: 12.5 mg/kg/injection, schedule: Q01DX009 (ip), vehicle: saline 102 % of control | dose: 25.0 mg/kg/injection, schedule: Q01DX009 (ip), vehicle: saline 100 % of control

O=C(CCCCn1cnc2c(=S)nc[nH]c21)Nc1ccc(C(=O)O)cc1
inactive: dose: 50.0 mg/kg/injection, schedule: Q01DX Z (ip), vehicle: carboxymethylcellulose (CMC) 101 % of control | dose: 100.0 mg/kg/injection, schedule: Q01DX Z (ip), vehicle: carboxymethylcellulose (CMC) 95 % of control | dose: 200.0 mg/kg/injection, schedule: Q01DX Z (ip), vehicle: carboxymethylcellulose (CMC) 104 % of control | dose: 400.0 mg/kg/injection, schedule: Q01DX Z (ip), vehicle: carboxymethylcellulose (CMC) 96 % of control

O=C1NC(c2ccccc2)(c2ccccc2)C(=O)N1CCO
inactive: [7] 100 % of control | [1] 96 % of control | [2] 107 % of control | [8] 92 % of control | [3] 96 % of control | [4] 104 % of control | dose: 400.0 mg/kg/injection, schedule: Q01DX001 (ip), vehicle: saline 102 % of control | [5] 90 % of control | [6] 98 % of control

COc1ccc(C2(C(=O)O)CC2)cc1
inactive: [17] 96 % of control | [18] 97 % of control | [19] 94 % of control

CC1c2ncnc(N)c2CN1C(=O)c1ccccc1 (configuration not stated)
inactive: dose: 100.0 mg/kg/injection, schedule: Q01DX001 (ip), vehicle: carboxymethylcellulose (CMC) 98 % of control | dose: 200.0 mg/kg/injection, schedule: Q01DX001 (ip), vehicle: carboxymethylcellulose (CMC) 98 % of control

O=C(COc1ccc(Cl)cc1)Nc1cccc([N+](=O)[O-])c1
inactive: [20] 96 % of control | [21] 92 % of control | dose: 400.0 mg/kg/injection, schedule: Q01DX009 (ip), vehicle: saline with Tween-80 90 % of control

O=C(Nc1ccc2c(c1)OCO2)O/N=C\c1cccnc1
inactive: dose: 12.5 mg/kg/injection, schedule: Q01DX009 (ip), vehicle: saline with Tween-80 97 % of control | dose: 25.0 mg/kg/injection, schedule: Q01DX009 (ip), vehicle: saline with Tween-80 105 % of control | dose: 50.0 mg/kg/injection, schedule: Q01DX009 (ip), vehicle: saline with Tween-80 100 % of control | [20] 86 % of control | [17] 100 % of control | [21] 91 % of control | [18] 113 % of control | [19] 111 % of control

O=C(O)/C=C/c1cc2c(cc1[N+](=O)[O-])OCO2
inactive: [11] 98 % of control | [12] 86 % of control | [13] 93 % of control | [14] 95 % of control | [15] 88 % of control | [16] 100 % of control

CO[C@@H]1CCCCCC[C@H]1[Hg][Cl]
inactive: dose: 2.0 mg/kg/injection, schedule: Q01DX015 (ip), vehicle: carboxymethylcellulose (CMC) 104 % of control | dose: 4.0 mg/kg/injection, schedule: Q01DX015 (ip), vehicle: carboxymethylcellulose (CMC) 95 % of control | dose: 5.0 mg/kg/injection, schedule: Q01DX001 (ip), vehicle: carboxymethylcellulose (CMC) 108 % of control | dose: 8.0 mg/kg/injection, schedule: Q01DX015 (ip), vehicle: carboxymethylcellulose (CMC) 101 % of control | dose: 10.0 mg/kg/injection, schedule: Q01DX001 (ip), vehicle: carboxymethylcellulose (CMC) 112 % of control | dose: 16.0 mg/kg/injection, schedule: Q01DX015 (ip), vehicle: carboxymethylcellulose (CMC) 93 % of control | dose: 20.0 mg/kg/injection, schedule: Q01DX001 (ip), vehicle: carboxymethylcellulose (CMC) 114 % of control | dose: 40.0 mg/kg/injection, schedule: Q01DX001 (ip), vehicle: carboxymethylcellulose (CMC) 108 % of control

Cc1ccc(NC(=O)Oc2cccc(C(F)(F)F)c2)cc1
inactive: [11] 100 % of control | [13] 98 % of control | [15] 100 % of control
